For one assay, the target named is T1, HDAC1 (Homo sapiens, UniProt Q13547).
T1 construct: purchased BPS Biosciences
Nature of the assay: in vitro HDAC enzyme assay with recombinant enzyme. The settings on record: from biochemical IC50 values, recombinant enzymes. An excerpt:
(§1) Among class I HDACs, Hdac1,2 share a 50% sequence homology with Hdac3. Therefore, we first determined the selectivity of ACY-957 towards HDAC1 and HDAC2 in in vitro enzyme assays using recombinant enzymes.

Another assay concerns the target T2, HDAC2 (Homo sapiens, UniProt Q92769).
T2 construct: purchased BPS Biosciences
Nature of the assay: in vitro HDAC enzyme assay with recombinant enzyme. The settings on record: from biochemical IC50 values, recombinant enzymes.
Excerpt: as §1

In a further assay the test system is Hdac1,2. Nature of the assay: in vitro enzyme assays, IC50 determination (FIG. 17A). It is filed as biochemical. On the procedure:
(A). For IC50 determination, recombinant HDAC enzymes were treated with HDAC1,2 or HDAC3 inhibitors in in vitro HDAC assays. (B). Western blots for H3K23ac using extracts from Pre-B-ALL SupB15 cells treated with increasing dose of HDAC1,2 inhibitor (ACY1035). (C). Hdac1^FI/FI, 2^FI/FI cells were infected with Ad-Cre virus to delete HDAC1 and HDAC2 (HDAC1,2 null) or uninfected (WT). (D). Hdac3^FI/FI cells were either uninfected (WT) or infected with Ad-Cre virus to delete Hdac3. HDAC3-null cells were treated with DMSO or the HDAC1,2 selective inhibitor.
We have determined 2 μM (FIG. 17B) as the minimum dose for the ACY compounds, respectively, that when added to cells increased H3K23ac (a mark targeted by Hdac1,2 but not Hdac3).

Assay [1] relates to SUDHL4 and Karpas-422 cells. Nature of the assay: Western blot of γH2AX on chromatin, with or without ionizing radiation. The format is cell-based, human. On the procedure:
The percentage of cells with 6 or greater γH2AX foci were counted in three independent experiments and at least 100 cells were counted in each experiment. […] Histones were purified using trichloroacetic acid extraction protocol (see Example 1). Western blot analysis was done with anti-γH2AX and histone H2AX served as the loading control. […] Following DMSO or ACY957 treatment, cells were exposed to a 5Gy dose of ionizing radiation and allowed to recover for 30 minutes prior to chromatin extraction. Western blot analysis was done with anti-γH2AX where total histone H2AX served as a loading control. (D): Karpas-422 cells were micro-irradiated with laser and allowed to recover for 15 minutes before fixation and immunofluorescence staining with anti-γH2AX, anti-HDAC1 and anti-HDAC2 antibodies was done.
(Immunoblotting shows a protein as a band on a membrane.)

The subject of assay [2] is Karpas-422, SUDHL4, WSU-DLCL2 and HeLa cells. Nature of the assay: laser micro-irradiation repair assay, H3K27me3 at break sites. The format is cell-based, human. The settings on record: 15 min recovery, vs DMSO. On the procedure: Following DMSO or ACY-957 treatment, cells were exposed to a 5Gy dose of ionizing radiation and allowed to recover for 30 minutes prior to chromatin extraction. Western blots were performed with anti-H3K27ac or anti-H3K27me3 with histone H3 serving as a loading control. (B-E): Karpas-422, SUDHL4, WSU-DLCL2 and HeLa cells were laser micro-irradiated and allowed to recover for 15 minutes before fixation and immunofluorescence staining with anti-γH2AX and anti-H3K27me3. Subsequently, the percentage of cells with H3K27me3 lines that co-localized with γH2AX were counted. Merge is the overlay of γH2AX and H3K27me3 pictures. (F-I): At least 100 cells with γH2AX lines were counted in each experiment. The quantitation shown was the average calculated from independent experiments+/−standard error. Quantitation from five, seven, five and six independent experiments performed in Karpas-422, SUDHL4, WSU-DLCL2 and HeLa cells, respectively, was used in the graph shown in this figure. […]
(A) Measurement of repair efficiency in SUDHL5 (EZH2^WT) and Karpas-422 (EZH2^GOF) cells using neutral comet assay that detects only double-strand breaks (DSBs). […] H3K27me3, γH2AX, Bmi-1, and serine2-phosphorylated RNA Polymerase II (engaged in transcriptional elongation) were monitored at laser break sites (arrows) after 15 minutes of recovery time. […]

In assay [3] the test system is Karpas-422 and SUDHL4 cells. Nature of the assay: Western blot of acid-extracted histones (H4K91ac, H4K16ac, monoubiquitinated H4). The format is cell-based, human. The settings on record: for monoubiquitinated form of H4 after doxorubicin: 48 h pretreatment, then 50 nM doxorubicin 4 h or 8 h.
Description: Western analysis was performed with anti-BBAP antibody and histone H3 was used as a loading control. Whole cell lysate of HeLa cells was prepared following transfection of cells with either non-targeting or two different BBAP siRNAs. These extracts served as negative controls for the signal from BBAP antibody. (B): SUDHL4 and Karpas-422 cells were treated with DMSO or 2 μM ACY-957 for 48 hr prior to chromatin extraction. Western analysis was done using anti-H4K91ac or anti-H4K16ac and histone H4 served as a loading control. (C): HeLa cells were transfected with either wild type H4 or H4K91R mutant constructs for 65 hours prior to extraction of histones by trichloroacetic acid. Western blot analysis was performed with anti-FLAG antibody. (D): SUDHL4 cells and Karpas-422 were treated with DMSO or 2 μM ACY-957 for 24 hours and histones were extracted by TCA precipitation. Western blotting with anti-H4 was performed to detect H4 and monoubiquitylated H4. (E): SUDHL4 cells and Karpas-422 were treated with DMSO or 2 μM ACY-957 for 48 hours and treated with 50 nM doxorubicin for 4 hr or 8 hr prior to histone extraction. Histones were extracted by TCA precipitation and western blotting with anti-H4 was performed to detect H4 and monoubiquitinated H4.
Histone Extraction by Trichloroacetic Acid. DLBCL cells were treated with ACY957 in 25 cm^2 flasks. Following treatment, cells were pelleted, washed with PBS and the pellet was re-suspended in 400 μl of lysis buffer with protease inhibitors (200 μl 0.5M HEPES.KOH, pH 7.9, 15 μl 1M MgCl2, 50 μl 2M KCl, 50 μl 0.1M DTT, 100 μl 0.4M NEM, 10 μl 1000× Aprotinin/Leupeptin, 10 μl 1000× Pepstatin A, and water to a total volume of 10 m L plus Roche protease inhibitor cocktail). To the cell suspension, a final concentration of 0.2M sulfuric acid was added and samples were sonicated twice using the Fisher FB120 sonicator at amplitude of 50% and with 5 pulses. After sonication, proteins were extracted for 30 minutes at 4° C. with end over end rotation. Samples were then centrifuged at 13,000 rpm for 10 minutes at 4° C. and histones were precipitated with a 20% final concentration of trichloroacetic acid and incubated on ice for 30 minutes or moved directly to −80° C. overnight. Following precipitation, samples were centrifuged again for 10 minutes and the resulting pellet was washed with cold acidified acetone (acetone+0.05N HCl). The histone pellets were centrifuged at the same settings but for 5 minutes then washed again with cold acetone. After this wash the pellets were centrifuged for another 5 minutes and the acetone was discarded. Pellets were dried in an incubator at 37° C. for 5 minutes then re-suspended in 50 μl 2×SDS sample buffer+β-mercaptoethanol and 8 μl 1M Tris HCl pH 8 to neutralize. The samples were then boiled for 8 minutes at 95° C. and if there was still visible pellet they were either boiled longer, sonicated, had more sample buffer added or a combination thereof.
We treated Karpas-422 or SUDHL4 cells with DMSO or ACY-957 for 48 h prior to the incubation for 4 h or 8 h in the presence of doxorubicin.

T1 sequence (Q13547 whole entry): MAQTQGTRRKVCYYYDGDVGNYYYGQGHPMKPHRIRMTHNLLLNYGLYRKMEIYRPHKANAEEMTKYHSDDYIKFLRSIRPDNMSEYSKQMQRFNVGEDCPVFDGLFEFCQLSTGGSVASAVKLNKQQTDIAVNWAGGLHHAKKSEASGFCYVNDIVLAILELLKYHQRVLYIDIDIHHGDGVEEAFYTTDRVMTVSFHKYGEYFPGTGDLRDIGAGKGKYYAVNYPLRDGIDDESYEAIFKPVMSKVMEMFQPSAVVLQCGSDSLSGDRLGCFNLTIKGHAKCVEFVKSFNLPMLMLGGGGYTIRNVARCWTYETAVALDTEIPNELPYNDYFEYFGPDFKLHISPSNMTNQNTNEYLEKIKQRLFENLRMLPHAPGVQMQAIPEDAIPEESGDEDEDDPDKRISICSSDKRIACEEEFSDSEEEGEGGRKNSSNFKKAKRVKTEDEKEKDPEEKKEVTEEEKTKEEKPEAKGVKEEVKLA
T2 sequence (Q92769 whole entry): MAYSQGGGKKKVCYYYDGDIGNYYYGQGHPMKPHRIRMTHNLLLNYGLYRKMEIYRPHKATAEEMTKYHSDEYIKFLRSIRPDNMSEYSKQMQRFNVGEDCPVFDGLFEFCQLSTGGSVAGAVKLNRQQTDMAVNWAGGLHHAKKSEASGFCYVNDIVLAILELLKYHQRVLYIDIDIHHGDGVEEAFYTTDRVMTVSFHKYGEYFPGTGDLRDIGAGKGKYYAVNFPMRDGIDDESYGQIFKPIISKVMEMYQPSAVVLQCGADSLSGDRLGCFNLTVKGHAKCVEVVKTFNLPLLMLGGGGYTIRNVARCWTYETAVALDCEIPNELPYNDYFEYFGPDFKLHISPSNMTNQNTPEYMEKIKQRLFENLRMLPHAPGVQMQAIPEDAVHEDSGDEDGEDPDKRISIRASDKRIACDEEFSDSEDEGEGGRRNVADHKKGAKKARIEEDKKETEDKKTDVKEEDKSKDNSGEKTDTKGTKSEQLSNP

As to `Nc1ccc(-c2cccs2)cc1NC(=O)c1ccc2nc(N3CCNCC3)ccc2c1` [ACY-957, N-(2-amino-5-(thiophen-2-yl)phenyl)-2-(piperazin-1-yl)quinoline-6-carboxamide], the “selectivity for HDAC1 when compared to HDAC3” value at HDAC1 was determined as 185 fold. Further, the “selectivity for HDAC2 when compared to HDAC3” value at HDAC2 is 72 fold. The “inhibition of Hdac1,2 activities compared to Hdac3 (IC50 values)” value in the assay on Hdac1,2 was “very selectively”. In assay [1] (48 hr, Western), the “chromatin associated γH2AX” value is recorded as “increase in chromatin associated γH2AX”. The “γH2AX levels on chromatin after ionizing radiation” value in assay [1] (48 h treatment, 5Gy, 30 min recovery) is recorded as “Increased γH2AX levels on chromatin”. Also, the results for the “H3K27me3 at laser-induced break sites” value in assay [2] and in assay [2] (listed as ACY957) were “reduced the extent of H3K27me3 present at laser-induced break sites” and “abolished”, respectively. Besides, the “global H4K16ac levels” value in assay [3] (2 μM, 48 hr) is on record as “increased global levels of H4K16ac”. The “global H4K91ac levels” value in assay [3] (2 μM, 48 hr) is “increased global H4K91ac levels”. The “global monoubiquitinated form of H4” value in assay [3] (30 h or 48 h, without doxorubicin) is given as “no change in global levels of the slow migrating monoubiquitinated form of H4”. Besides, the “monoubiquitinated form of H4 after doxorubicin” value was “significant reduction to complete absence of the slow migrating monoubiquitinated form of H4” in assay [3] and “decrease in the BBAP-mediated H4K91 monoubiquitination” in assay [3] (listed as ACY957).

(Values after patent US11154551B2, “HDAC1,2 inhibitors and methods of using the same” (UNIVERSITY OF UTAH RESEARCH FOUNDATION, priority 2014, dated 2021).)
